In US5278308A, “Iodine derivatives of tetrabenazine” (The Trustees of The University of Pennsylvania, priority 1992, dated 1994):
Like-named read-outs stand apart in the source and are kept apart here.

Assays:
[1] = Protein binding by Filter (50% rat plasma, Amicon micropartition system); assay type: in vitro ADME; conditions: rat, 50% plasma, 30 min, 37° C.
Protocol: One mL of rat plasma (50%) was mixed with [^123 I]I-TBZ in a test tube. After 30 min incubation at 37° C., 50 uL ×3 of liquid was removed as initial dose standard (I.D.); the rest was passed through an Amicon micropartition system (Amicon division, W. R. Grace, Danvers, Mass.) by centrifuging for 20 minutes (2,000 rpm) at 0° C. Four samples (50 uL each) were removed from the filtered solution and counted. The protein binding (% bound) was calculated by using the unit counts in filtrate divided by unit counts in ID.

[2] = Protein binding by TCA (10% rat plasma, 30 min, 37° C.); assay type: in vitro ADME; conditions: rat, 10% plasma, TCA precipitation
Protocol: One ml of 10% rat plasma was mixed with [^123 I]I-TBZ in a test tube and the mixture was incubated for 30 minutes at 37° C. To the mixture 0.4 mL of 10% trichloroacetic acid (TCA) was added. The test tube was centrifuged for 10 min. (4,000 rpm), and the top aqueous layer was removed to another test tube for counting The precipitate was washed with water (0.5 mL×2). The combined water and top aqueous layer was counted. The residual precipitate was also counted. The protein binding was obtained by dividing counts in precipitate with counts in aqueous layers.

[3] = Biodistribution in rats (iv injection); assay type: in vivo; conditions: rat, iv
Protocol: While under ether anesthesia, each rat was injected in the femoral vein with 0.2 mL saline solution containing [^123 I]I-TBZ (1-5uCi) either racemic mixture, peak-A or peak-B. The rats were sacrificed at various time points postinjection by cardiac excision. The tissues were weighed and the radioactivity was measured with a Canberra gamma counter (Model 5000). The percent dose per organ was calculated by a comparison of the tissue counts to suitably diluted aliquots of the injected material. Total activities of blood and muscle were calculated assuming that they were 7% and 40% of total body weight, respectively Results are presented in Tables 3, 4A and 4B.

[4] = Regional brain distribution in rats (dissection, iv injection); assay type: in vivo; conditions: for Str./Cb (% dose/gram ratio) / Regional brain uptake, Rem / Regional brain uptake, cerebellum / Regional brain uptake, cortex / Regional brain uptake, hippocampus / Regional brain uptake, striatum / tissue uptake at 5 min / tissue uptake at 20 min: rat
Protocol: Regional brain distribution of [^123 I]I-TBZ (with either a racemic mixture, peak A or B) in rats was obtained after an iv injection. By dissecting, weighing and counting samples from different brain regions (cortex, striatum, hippocampus and cerebellum), % dose/gram of the samples was calculated by comparing the sample counts with the counts of the diluted initial dose. The ratio of uptake in each region was obtained by dividing % dose/gram of each region with that of the cerebellum. The effect of tetrahydrobenazine on the uptake of peak A or peak B was investigated by pretreating the rats with the TBZ 3 mg/rat at 3 min before iv injection of [^123 I]I-TBZ. At 20 min. post injection the rats were dissected and the regional brain dissection was carried out as above.

[5] = 20 min, pretreated with TBZ 3 min before, n = 2
[6] = 120 min, listed as I-TBZ peak A

COc1cc2c(cc1OC)C1CC(O)(C=C[123I])C(CC(C)C)CN1CC2 (single isomer, unassigned) [Peak A]
fraction unbound at 0.5 h [1]: 0.182 | fraction unbound at 0.5 h [2]: 0.619 | Brain uptake ([3]; 2 min): 1.2 % Dose/organ | Blood uptake (blood assumed 7% of body weight) ([3]; 5 min): 2.15 ± 0.11 % Dose/organ | Br/Bl (% dose/gram ratio) ([3]; 5 min): 5.51 ± 0.37 | Brain uptake ([3]; 5 min): 1.12 ± 0.15 % Dose/organ | Heart uptake ([3]; 5 min): 0.91 ± 0.17 % Dose/organ | Kidney uptake ([3]; 5 min): 4.43 ± 0.56 % Dose/organ | Liver uptake ([3]; 5 min): 21.23 ± 2.66 % Dose/organ | Lung uptake ([3]; 5 min): 2.85 ± 0.52 % Dose/organ | Muscle uptake (muscle assumed 40% of body weight) ([3]; 5 min): 11.96 ± 1.56 % Dose/organ | Skin uptake ([3]; 5 min): 8.72 ± 1.52 % Dose/organ | Spleen uptake ([3]; 5 min): 0.62 ± 0.13 % Dose/organ | Thyroid uptake ([3]; 5 min): 0.08 ± 0.01 % Dose/organ | Blood uptake (blood assumed 7% of body weight) ([3]; 20 min): 1.42 ± 0.56 % Dose/organ | Br/Bl (% dose/gram ratio) ([3]; 20 min): 4.59 ± 1.10 | Brain uptake ([3]; 20 min): 0.58 ± 0.01 % Dose/organ | Heart uptake ([3]; 20 min): 0.49 ± 0.04 % Dose/organ | Kidney uptake ([3]; 20 min): 2.21 ± 0.11 % Dose/organ | Liver uptake ([3]; 20 min): 16.16 ± 4.71 % Dose/organ | Lung uptake ([3]; 20 min): 1.65 ± 0.11 % Dose/organ | Muscle uptake (muscle assumed 40% of body weight) ([3]; 20 min): 26.79 ± 7.14 % Dose/organ | Skin uptake ([3]; 20 min): 9.00 ± 5.10 % Dose/organ | Spleen uptake ([3]; 20 min): 0.44 ± 0.06 % Dose/organ | Thyroid uptake ([3]; 20 min): 0.05 ± 0.01 % Dose/organ | Blood uptake (blood assumed 7% of body weight) [3, 5]: 2.05 ± 0.21 % Dose/organ | Br/Bl (% dose/gram ratio) [3, 5]: 4.10 ± 0.27 | Brain uptake [3, 5]: 0.85 ± 0.12 % Dose/organ | Heart uptake [3, 5]: 0.61 ± 0.11 % Dose/organ | Kidney uptake [3, 5]: 2.03 ± 0.24 % Dose/organ | Liver uptake [3, 5]: 13.34 ± 4.06 % Dose/organ | Lung uptake [3, 5]: 1.74 ± 0.002 % Dose/organ | Muscle uptake (muscle assumed 40% of body weight) [3, 5]: 29.70 ± 2.56 % Dose/organ | Skin uptake [3, 5]: 7.08 ± 2.33 % Dose/organ | Spleen uptake [3, 5]: 0.06 ± 0.07 % Dose/organ | Thyroid uptake [3, 5]: 0.08 ± 0.01 % Dose/organ | Blood uptake (blood assumed 7% of body weight) ([3]; 60 min): 1.14 ± 0.16 % Dose/organ | Br/Bl (% dose/gram ratio) ([3]; 60 min): 3.05 ± 0.12 | Brain uptake ([3]; 60 min): 0.33 ± 0.07 % Dose/organ | Heart uptake ([3]; 60 min): 0.38 ± 0.07 % Dose/organ | Kidney uptake ([3]; 60 min): 1.52 ± 0.28 % Dose/organ | Liver uptake ([3]; 60 min): 10.12 ± 1.26 % Dose/organ | Lung uptake ([3]; 60 min): 1.17 ± 0.06 % Dose/organ | Muscle uptake (muscle assumed 40% of body weight) ([3]; 60 min): 21.88 ± 2.74 % Dose/organ | Skin uptake ([3]; 60 min): 14.76 ± 4.35 % Dose/organ | Spleen uptake ([3]; 60 min): 0.36 ± 0.04 % Dose/organ | Thyroid uptake ([3]; 60 min): 0.07 ± 0.01 % Dose/organ | Blood uptake (blood assumed 7% of body weight) ([3]; 120 min): 0.95 ± 0.03 % Dose/organ | Br/Bl (% dose/gram ratio) ([3]; 120 min): 1.96 ± 0.43 | Brain uptake ([3]; 120 min): 0.18 ± 0.04 % Dose/organ | Heart uptake ([3]; 120 min): 0.26 ± 0.03 % Dose/organ | Kidney uptake ([3]; 120 min): 1.05 ± 0.1q | Liver uptake ([3]; 120 min): 7.54 ± 0.77 % Dose/organ | Lung uptake ([3]; 120 min): 0.81 ± 0.14 % Dose/organ | Muscle uptake (muscle assumed 40% of body weight) ([3]; 120 min): 18.56 ± 2.34 % Dose/organ | Skin uptake ([3]; 120 min): 11.22 ± 3.92 % Dose/organ | Spleen uptake ([3]; 120 min): 0.23 ± 0.04 % Dose/organ | Thyroid uptake ([3]; 120 min): 0.07 ± 0.05 % Dose/organ | Regional distribution / selectivity in rat brain (in words) [4]: significantly increased selective regional distribution | Str./Cb (% dose/gram ratio) ([4]; 5 min, listed as I-TBZ peak A): 1.09 | Regional brain uptake, Rem ([4]; 20 min, listed as I-TBZ peak A): 0.395 ± 0.019 % Dose/g | Regional brain uptake, cerebellum ([4]; 20 min, listed as I-TBZ peak A): 0.362 ± 0.017 % Dose/g | Regional brain uptake, cortex ([4]; 20 min, listed as I-TBZ peak A): 0.420 ± 0.031 % Dose/g | Regional brain uptake, hippocampus ([4]; 20 min, listed as I-TBZ peak A): 0.414 ± 0.032 % Dose/g | Regional brain uptake, striatum ([4]; 20 min, listed as I-TBZ peak A): 0.479 ± 0.014 % Dose/g | Str./Cb (% dose/gram ratio) ([4]; 20 min, listed as I-TBZ peak A): 1.32 | Str./Cb (% dose/gram ratio) [4, 5]: 1.12 | Regional brain uptake, Rem ([4]; 60 min, listed as I-TBZ peak A): 0.229 ± 0.036 % Dose/g | Regional brain uptake, cerebellum ([4]; 60 min, listed as I-TBZ peak A): 0.225 ± 0.029 % Dose/g | Regional brain uptake, cortex ([4]; 60 min, listed as I-TBZ peak A): 0.234 ± 0.035 % Dose/g | Regional brain uptake, hippocampus ([4]; 60 min, listed as I-TBZ peak A): 0.230 ± 0.048 % Dose/g | Regional brain uptake, striatum ([4]; 60 min, listed as I-TBZ peak A): 0.271 ± 0.046 % Dose/g | Str./Cb (% dose/gram ratio) ([4]; 60 min, listed as I-TBZ peak A): 1.21 | Regional brain uptake, Rem [4, 6]: 0.118 ± 0.022 % Dose/g | Regional brain uptake, cerebellum [4, 6]: 0.116 ± 0.026 % Dose/g | Regional brain uptake, cortex [4, 6]: 0.129 ± 0.019 % Dose/g | Regional brain uptake, hippocampus [4, 6]: 0.113 ± 0.041 % Dose/g | Regional brain uptake, striatum [4, 6]: 0.138 ± 0.022 % Dose/g | Str./Cb (% dose/gram ratio) [4, 6]: 1.19 | tissue uptake at 5 min ([4]; brain remainder, 5 min, read-out: Regional brain uptake, Rem): 0.74 ± 0.063 %ID/g | tissue uptake at 20 min ([4]; brain remainder, 20 min, pretreated with TBZ 3 min before, n = 2, read-out: Regional brain uptake, Rem): 0.545 ± 0.047 %ID/g | tissue uptake at 5 min ([4]; cerebellum, 5 min, read-out: Regional brain uptake, cerebellum): 0.708 ± 0.044 %ID/g | tissue uptake at 20 min ([4]; cerebellum, 20 min, pretreated with TBZ 3 min before, n = 2, read-out: Regional brain uptake, cerebellum): 0.534 ± 0.032 %ID/g | tissue uptake at 5 min ([4]; cortex, 5 min, read-out: Regional brain uptake, cortex): 0.792 ± 0.096 %ID/g | tissue uptake at 20 min ([4]; cortex, 20 min, pretreated with TBZ 3 min before, n = 2, read-out: Regional brain uptake, cortex): 0.585 ± 0.067 %ID/g | tissue uptake at 5 min ([4]; hippocampus, 5 min, read-out: Regional brain uptake, hippocampus): 0.725 ± 0.066 %ID/g | tissue uptake at 20 min ([4]; hippocampus, 20 min, pretreated with TBZ 3 min before, n = 2, read-out: Regional brain uptake, hippocampus): 0.581 ± 0.075 %ID/g | tissue uptake at 5 min ([4]; striatum, 5 min, read-out: Regional brain uptake, striatum): 0.77 ± 0.019 %ID/g | tissue uptake at 20 min ([4]; striatum, 20 min, pretreated with TBZ 3 min before, n = 2, read-out: Regional brain uptake, striatum): 0.596 %ID/g
